In paper PMC12040169 (PLOS Biology, 2025):

Test: in vitro
Conditions: human, hela cells, % viability

SMILES	viability at 28.5 h, 10 µM [%]
CC(=O)N(Cc1ccccc1)c1ccc(C(=O)O)cc1 [CBK286882]	102
O=C(O)c1cc2c(s1)CN(C1CCCCC1)C2 [CBK286885]	96.2
O=C(O)CCCOc1nc(C2CC2)cc(C(F)(F)F)n1 [CBK286886]	92
Cc1c(C(C)NC(=O)C2C3CCC(O3)C2C(=O)O)cnn1C (centres unmarked) [CBK286887]	91.4
Cc1c(-c2cc(C(F)F)n3nc(CCC(=O)O)nc3n2)cnn1C [CBK286888]	85.7
Cc1ccccc1N1CCN(Cc2cccc(C(=O)O)c2)CC1 [CBK286890]	90.8
O=C(O)C1CCN(Cc2ccc(Cl)cc2)CC1 [CBK286895]	89.3
CC(C)(C)C(Cn1cccn1)NC(=O)CCC(=O)O (centres unmarked) [CBK286897]	81.3
O=C(O)CCCC(=O)N(c1ccccc1)c1ccccc1 [CBK286901]	80.2
COc1ccccc1N1CCN(C(=O)CCCC(=O)O)CC1 [CBK286904]	80.8
O=C(O)CCC(=O)NN1C(=O)c2ccccc2NC1c1ccc(F)cc1 (centres unmarked) [CBK286905]	84
N#Cc1ccccc1NC(=O)C(CC(=O)O)NCc1ccccc1 (centres unmarked) [CBK286907]	83.6
COc1cc(C(N)C(=O)O)ccc1OCc1ccccc1 (centres unmarked) [CBK286909]	82.6
O=C(O)CC(c1ccncc1)c1c[nH]c2ccccc12 (centres unmarked) [CBK286913]	90.9
O=C(O)CCn1cc(Br)c([N+](=O)[O-])n1 [CBK286916]	90
O=C(O)C1C2C=CC(O2)C1C(=O)NCC1CCCO1 (centres unmarked) [CBK286917]	92.7
O=C(O)CCC(=O)N1CCN(C2CCCCC2)CC1 [CBK286918]	94.1
CC(C)C(NS(=O)(=O)c1ccc2ccccc2c1)C(=O)O (centres unmarked) [CBK286919]	96.7
Cc1ccc(-c2ccc(CCC(=O)O)n2CC(=O)O)cc1 [CBK286922]	94.8
CC1=CC(C)C2C(=O)N(c3ccc(C(=O)O)cc3)C(=O)C2C1 (centres unmarked) [CBK286923]	87
COc1ccc(-c2csc(Nc3cccc(C(=O)O)c3)n2)cc1 [CBK286924]	86.7
O=C(O)C1CCCN(C(=O)CCc2c[nH]c3ccccc23)C1 (centres unmarked) [CBK286925]	88.6
CCCC(C(=O)O)C(C)CC(=O)Nc1ccccc1Cl (centres unmarked) [CBK286927]	99.1
CCc1c(SCC(=O)O)nc2ccccc2c1C [CBK286928]	95.8

SMILES	viability at 28.5 h, 10 µM [%]
Cc1ccc(S(=O)(=O)NC2CCC(C(=O)O)CC2)cc1 (centres unmarked) [CBK286929]	96.4
O=C(O)CCC(=O)NCc1ccc2c(c1)OCO2 [CBK286930]	91.6
CCOc1ccc(NC(=O)COc2ccccc2/C=C/C(=O)O)cc1 [CBK286935]	96.6
Cc1ccc(NC(=O)C2CCCCC2C(=O)O)cc1Cl (centres unmarked) [CBK286938]	99.9
CCCC(=O)Nc1ccc(C(=O)O)cc1NC(=O)CCC [CBK286939]	92.3
CC(CCc1ccccc1)NC(=O)c1ccccc1C(=O)O (centres unmarked) [CBK286940]	94.5
NCCCC(C(=O)O)C(=O)c1ccccc1-c1ccccc1 (centres unmarked) [CBK286941]	99.2
CCN(CC)C(=O)Cc1cc(C(=O)O)c2ccccc2n1 [CBK286942]	104
O=C(O)C1C2CCC(O2)C1C(=O)N1CCN(Cc2ccc(Cl)cc2)CC1 (centres unmarked) [CBK286943]	97.5
Cc1ccc(S(=O)(=O)N2CCN(C(=O)C3C4C=CC(C4)C3C(=O)O)CC2)cc1 (centres unmarked) [CBK286944]	106
O=C(O)CCC1=C2c3ccccc3CCN2C(=O)CC1 [CBK286945]	108
O=C(O)c1oc2ccccc2c1CN1CCN(c2ccccc2)CC1 [CBK286948]	115
CC(C)(C)c1ccc(C(=O)N2CCC(C(=O)O)CC2)cc1 [CBK286949]	108
C/C(=C/C(=O)NCc1ccc(Cl)cc1)C(=O)O [CBK286954]	105
O=C(O)CCC(=O)N1CCN(S(=O)(=O)c2ccc(F)cc2)CC1 [CBK286956]	93.2
O=C(O)CCCC(=O)NC12CC3CC(CC(C3)C1)C2 [CBK286958]	97.4
O=C(O)/C=C/C(=O)NN1C(=O)c2ccccc2C1=O [CBK286962]	86.9
O=C(O)c1c[nH]nc1-c1cccc(Br)c1 [CBK286963]	91.1
O=C(O)C1Cc2nc[nH]c2C(c2ccc(F)cc2)N1 (centres unmarked) [CBK286970]	86.1
O=C(O)CCCC(=O)N1CCN(C(=O)c2sc3cc(Cl)ccc3c2Cl)CC1 [CBK286973]	91
Cc1nc2ccc(C(=O)O)cc2c2c1CC(CN)O2 (centres unmarked) [CBK286974]	97.7
O=C(Cc1ccccc1)NC(Cc1ccc(Cl)cc1)C(=O)O (centres unmarked) [CBK286976]	92.7
Cc1ccc(N(CC(=O)O)S(C)(=O)=O)cc1C [CBK286978]	87.1
